Data: ChEMBL document CHEMBL1201862, “PubChem BioAssay data set” (2004)
Calls of active or inactive are those of the source.

Legend:
[1] = Luminescence Cell-Based Dose Response HTS to Identify Inhibitors of 5'UTR Stem-Loop Driven Prion Protein mRNA Translation in H4 Neuroglioblastoma Cells. [Related pubchem assays: 1827 (Project Summary), 1813 (Primary HTS)]; type: functional
SUMO-activating enzyme = SUMO-activating enzyme (Homo sapiens, UniProt Q9UBT2); test: blockers of UBC9-mediated SUMO conjugation – biochemical, AlphaScreen, SUMOylation inhibitor project, confirmation (AID 2018); type: functional
[2] = biological target: Serine/threonine-protein phosphatase (Homo sapiens, UniProt Q9BPW0); test: inhibition of protein phosphatase 5 activity – biochemical, fluorescence, dose response (AID 2395)
Genome polyprotein = Genome polyprotein (dengue virus type 2, UniProt P29990); test: flavivirus cap methylation enzyme inhibition – biochemical, confirmation dose response, primary screen (AID 588689); type: functional
[3] = biological target: T1, Mannose-6-phosphate isomerase (Homo sapiens, UniProt P34949); test: MPI inhibition at elevated mannose 6-phosphate – biochemical, fluorescence intensity, high mannose 6-phosphate, primary screen (AID 1220)
T1 sequence (P34949 whole entry): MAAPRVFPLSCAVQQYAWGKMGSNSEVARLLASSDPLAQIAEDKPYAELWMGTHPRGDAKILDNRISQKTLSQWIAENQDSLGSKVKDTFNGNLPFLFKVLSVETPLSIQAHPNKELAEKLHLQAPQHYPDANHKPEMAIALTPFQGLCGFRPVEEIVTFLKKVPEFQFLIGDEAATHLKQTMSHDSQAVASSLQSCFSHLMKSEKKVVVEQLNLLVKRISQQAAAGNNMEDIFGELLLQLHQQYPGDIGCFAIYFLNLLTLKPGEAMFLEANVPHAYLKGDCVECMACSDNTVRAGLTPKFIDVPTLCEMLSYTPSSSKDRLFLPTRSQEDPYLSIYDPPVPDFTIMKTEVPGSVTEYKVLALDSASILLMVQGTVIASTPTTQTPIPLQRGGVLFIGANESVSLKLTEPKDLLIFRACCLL

[4] = biological target: Dual specificity protein kinase CLK2 (Homo sapiens, UniProt P49760); type: functional
Sequence of Dual specificity protein kinase CLK2 (P49760 whole entry): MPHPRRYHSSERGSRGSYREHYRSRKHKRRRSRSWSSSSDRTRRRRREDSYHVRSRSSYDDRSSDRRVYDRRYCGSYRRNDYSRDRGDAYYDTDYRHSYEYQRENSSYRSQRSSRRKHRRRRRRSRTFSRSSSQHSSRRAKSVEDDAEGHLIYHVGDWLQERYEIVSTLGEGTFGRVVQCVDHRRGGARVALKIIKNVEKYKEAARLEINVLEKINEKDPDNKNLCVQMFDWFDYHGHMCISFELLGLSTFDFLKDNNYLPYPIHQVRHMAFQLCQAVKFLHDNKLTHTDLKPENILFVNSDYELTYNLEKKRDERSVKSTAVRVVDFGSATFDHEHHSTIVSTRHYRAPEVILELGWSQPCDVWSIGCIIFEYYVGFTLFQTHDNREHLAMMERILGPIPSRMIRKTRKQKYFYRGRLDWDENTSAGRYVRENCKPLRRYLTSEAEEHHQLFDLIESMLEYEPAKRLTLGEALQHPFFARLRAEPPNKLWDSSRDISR

[5] = biological target: cGMP-dependent protein kinase 1 (Homo sapiens, UniProt Q13976); type: functional;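 also: value from a kinome panel screen with PRKG1 as the panel member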
[6] = biological target: Protein kinase C delta type (Homo sapiens, UniProt Q05655); type: functional
[7] = biological target: Testis-specific serine/threonine-protein kinase 2 (Homo sapiens, UniProt Q96PF2); type: functional;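 also: part of the Navigating the Kinome panel, target entry STK22B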
[8] = biological target: Mitogen-activated protein kinase 8 (Homo sapiens, UniProt P45983); type: functional;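 also: value comes from one member of a kinome-wide kinase profiling panel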
Sequence of Mitogen-activated protein kinase 8 (P45983 whole entry): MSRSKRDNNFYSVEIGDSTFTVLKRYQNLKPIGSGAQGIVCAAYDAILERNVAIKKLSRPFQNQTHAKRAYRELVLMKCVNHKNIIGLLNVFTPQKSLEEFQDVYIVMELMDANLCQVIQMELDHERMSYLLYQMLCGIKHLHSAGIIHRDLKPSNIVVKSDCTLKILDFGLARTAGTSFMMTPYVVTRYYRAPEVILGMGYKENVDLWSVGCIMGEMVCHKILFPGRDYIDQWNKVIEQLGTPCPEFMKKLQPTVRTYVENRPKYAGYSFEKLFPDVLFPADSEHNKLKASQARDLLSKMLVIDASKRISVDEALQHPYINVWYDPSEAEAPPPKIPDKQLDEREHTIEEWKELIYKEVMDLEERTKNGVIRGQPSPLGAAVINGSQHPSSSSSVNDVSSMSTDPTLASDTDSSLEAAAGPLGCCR

[9] = biological target: Casein kinase II subunit alpha (Homo sapiens, UniProt P68400); type: functional
Sequence of Casein kinase II subunit alpha (P68400 whole entry): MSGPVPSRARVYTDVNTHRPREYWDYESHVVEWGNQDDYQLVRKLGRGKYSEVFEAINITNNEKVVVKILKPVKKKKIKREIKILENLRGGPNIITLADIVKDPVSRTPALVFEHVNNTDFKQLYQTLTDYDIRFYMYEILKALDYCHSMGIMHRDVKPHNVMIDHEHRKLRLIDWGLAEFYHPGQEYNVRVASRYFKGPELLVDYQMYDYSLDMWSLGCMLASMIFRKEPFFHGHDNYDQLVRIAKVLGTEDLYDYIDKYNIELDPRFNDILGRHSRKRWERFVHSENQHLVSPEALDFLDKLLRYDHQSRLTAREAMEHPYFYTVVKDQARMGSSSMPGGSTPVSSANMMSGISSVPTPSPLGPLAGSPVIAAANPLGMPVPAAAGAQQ

[10] = biological target: Serine/threonine-protein kinase PAK 4 (Homo sapiens, UniProt O96013); type: functional;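 also: value obtained within a kinome profiling panel in which PAK4 was one of the panel members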
[11] = biological target: Calcium/calmodulin-dependent protein kinase type II subunit delta (Homo sapiens, UniProt Q13557); type: functional
Sequence of Calcium/calmodulin-dependent protein kinase type II subunit delta (Q13557 whole entry, canonical isoform): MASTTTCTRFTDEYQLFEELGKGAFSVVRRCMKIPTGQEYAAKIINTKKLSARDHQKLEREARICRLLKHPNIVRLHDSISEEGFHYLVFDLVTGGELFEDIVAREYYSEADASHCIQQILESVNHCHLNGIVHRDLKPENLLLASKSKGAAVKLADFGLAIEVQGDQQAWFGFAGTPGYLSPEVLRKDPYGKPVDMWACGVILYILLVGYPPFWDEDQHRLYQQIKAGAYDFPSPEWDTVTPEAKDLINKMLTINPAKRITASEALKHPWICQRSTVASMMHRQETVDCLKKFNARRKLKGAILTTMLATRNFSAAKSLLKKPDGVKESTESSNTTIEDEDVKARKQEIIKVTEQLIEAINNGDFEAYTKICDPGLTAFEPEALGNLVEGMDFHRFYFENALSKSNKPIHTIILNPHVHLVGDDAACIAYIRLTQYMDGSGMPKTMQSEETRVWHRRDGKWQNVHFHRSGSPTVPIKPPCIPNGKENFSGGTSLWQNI

[12] = biological target: Casein kinase I isoform alpha (Homo sapiens, UniProt P48729); type: functional
Sequence of Casein kinase I isoform alpha (P48729 whole entry, canonical isoform): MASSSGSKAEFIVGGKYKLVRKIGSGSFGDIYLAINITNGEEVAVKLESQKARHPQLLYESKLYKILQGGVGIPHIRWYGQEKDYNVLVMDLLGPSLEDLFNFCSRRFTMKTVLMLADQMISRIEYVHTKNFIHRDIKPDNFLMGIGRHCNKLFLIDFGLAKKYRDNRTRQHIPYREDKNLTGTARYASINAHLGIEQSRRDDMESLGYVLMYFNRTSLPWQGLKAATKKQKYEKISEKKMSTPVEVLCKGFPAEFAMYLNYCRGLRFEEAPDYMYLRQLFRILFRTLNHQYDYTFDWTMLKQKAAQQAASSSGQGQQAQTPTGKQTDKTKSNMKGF

[13] = biological target: Tyrosine-protein kinase JAK3 (Homo sapiens, UniProt P52333); type: functional
[14] = biological target: Tyrosine-protein kinase Lyn (Homo sapiens, UniProt P07948); type: functional;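 also: lyn as one member of a kinase panel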
[15] = biological target: Mitogen-activated protein kinase 9 (Homo sapiens, UniProt P45984); type: functional;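 also: value from a kinome panel profiling assay, MAPK9 panel entry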
[16] = biological target: Protein kinase C gamma type (Homo sapiens, UniProt P05129); type: functional
[17] = biological target: Glycogen synthase kinase-3 alpha (Homo sapiens, UniProt P49840); type: functional;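 also: GSK3A result taken from a broad kinome-wide kinase panel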
Activated CDC42 kinase 1 = Activated CDC42 kinase 1 (Homo sapiens, UniProt Q07912); test: Navigating the Kinome. Panel member name: ACK1; type: functional
[18] = biological target: MAP kinase-interacting serine/threonine-protein kinase 2 (Homo sapiens, UniProt Q9HBH9); type: functional
[19] = biological target: Vascular endothelial growth factor receptor 2 (Homo sapiens, UniProt P35968); type: functional
[20] = biological target: Cyclin-dependent kinase 5 (Homo sapiens, UniProt Q00535); type: functional;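 also: CDK5 measured as one member of a kinase profiling panel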
Sequence of Cyclin-dependent kinase 5 (Q00535 whole entry): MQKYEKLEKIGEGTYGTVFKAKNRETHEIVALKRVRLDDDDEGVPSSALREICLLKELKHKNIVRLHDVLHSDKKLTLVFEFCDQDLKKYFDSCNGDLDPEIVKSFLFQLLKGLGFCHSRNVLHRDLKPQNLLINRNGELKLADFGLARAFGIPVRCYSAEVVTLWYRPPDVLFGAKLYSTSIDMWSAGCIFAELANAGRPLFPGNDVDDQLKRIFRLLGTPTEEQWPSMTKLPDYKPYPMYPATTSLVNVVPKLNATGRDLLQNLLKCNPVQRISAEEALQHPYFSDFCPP

Ephrin type-A receptor 2 = Ephrin type-A receptor 2 (Homo sapiens, UniProt P29317); type: functional;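 also: EPHA2 tested as one member of a kinome-wide kinase panel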
[21] = biological target: Serine/threonine-protein kinase Nek4 (Homo sapiens, UniProt P51957); type: functional
Sequence of Serine/threonine-protein kinase Nek4 (P51957 whole entry): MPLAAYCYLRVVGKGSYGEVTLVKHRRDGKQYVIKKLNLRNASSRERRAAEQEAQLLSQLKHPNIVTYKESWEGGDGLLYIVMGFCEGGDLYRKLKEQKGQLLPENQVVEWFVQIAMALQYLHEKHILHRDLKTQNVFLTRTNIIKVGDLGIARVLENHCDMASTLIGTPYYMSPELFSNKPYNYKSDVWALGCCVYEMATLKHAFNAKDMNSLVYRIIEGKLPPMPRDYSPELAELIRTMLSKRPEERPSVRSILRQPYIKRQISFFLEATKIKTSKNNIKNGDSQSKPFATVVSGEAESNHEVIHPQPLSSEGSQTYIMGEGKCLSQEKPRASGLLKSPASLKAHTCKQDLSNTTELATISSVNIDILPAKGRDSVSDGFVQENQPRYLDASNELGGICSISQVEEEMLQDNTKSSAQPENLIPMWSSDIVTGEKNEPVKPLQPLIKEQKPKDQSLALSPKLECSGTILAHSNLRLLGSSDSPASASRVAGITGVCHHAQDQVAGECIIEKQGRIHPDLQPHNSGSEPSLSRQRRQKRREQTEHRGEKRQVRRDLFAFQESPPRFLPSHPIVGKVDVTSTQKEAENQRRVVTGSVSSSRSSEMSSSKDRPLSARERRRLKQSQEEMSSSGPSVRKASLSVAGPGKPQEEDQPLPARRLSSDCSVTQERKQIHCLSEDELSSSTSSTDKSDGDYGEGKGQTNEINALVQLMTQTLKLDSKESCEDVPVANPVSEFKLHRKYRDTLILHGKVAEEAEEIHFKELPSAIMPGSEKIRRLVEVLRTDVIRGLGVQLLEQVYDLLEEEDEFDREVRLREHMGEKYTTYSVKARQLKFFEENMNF

[22] = biological target: Protein kinase C iota type (Homo sapiens, UniProt P41743); type: functional;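 also: measured within a kinome-wide kinase panel, PRKCI as panel member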
[23] = biological target: Interleukin-1 receptor-associated kinase 4 (Homo sapiens, UniProt Q9NWZ3); type: functional
[24] = biological target: Vascular endothelial growth factor receptor 3 (Homo sapiens, UniProt P35916); type: functional;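 also: value from a kinome-wide profiling panel, with FLT4 as the panel member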
[25] = biological target: Calcium/calmodulin-dependent protein kinase type 1 (Homo sapiens, UniProt Q14012); type: functional
Sequence of Calcium/calmodulin-dependent protein kinase type 1 (Q14012 whole entry): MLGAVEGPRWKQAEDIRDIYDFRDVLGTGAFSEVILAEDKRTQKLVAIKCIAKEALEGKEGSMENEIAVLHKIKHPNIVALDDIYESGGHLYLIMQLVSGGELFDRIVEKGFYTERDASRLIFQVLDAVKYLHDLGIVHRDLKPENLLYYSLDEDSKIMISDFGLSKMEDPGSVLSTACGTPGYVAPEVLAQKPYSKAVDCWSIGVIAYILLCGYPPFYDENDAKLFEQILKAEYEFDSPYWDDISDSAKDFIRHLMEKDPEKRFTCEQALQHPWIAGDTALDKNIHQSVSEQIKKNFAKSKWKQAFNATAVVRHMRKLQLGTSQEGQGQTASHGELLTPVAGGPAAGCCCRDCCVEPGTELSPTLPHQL

[26] = biological target: Serine/threonine-protein kinase pim-2 (Homo sapiens, UniProt Q9P1W9); type: functional;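 also: value comes from a broad kinase panel profiling study in which PIM2 was one of the panel members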
[27] = biological target: 3-phosphoinositide-dependent protein kinase 1 (Homo sapiens, UniProt O15530); type: functional;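 also: value comes from the Navigating the Kinome panel, PDPK1 member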
[28] = biological target: STE20-like serine/threonine-protein kinase (Homo sapiens, UniProt Q9H2G2); type: functional
Sequence of STE20-like serine/threonine-protein kinase (Q9H2G2 whole entry): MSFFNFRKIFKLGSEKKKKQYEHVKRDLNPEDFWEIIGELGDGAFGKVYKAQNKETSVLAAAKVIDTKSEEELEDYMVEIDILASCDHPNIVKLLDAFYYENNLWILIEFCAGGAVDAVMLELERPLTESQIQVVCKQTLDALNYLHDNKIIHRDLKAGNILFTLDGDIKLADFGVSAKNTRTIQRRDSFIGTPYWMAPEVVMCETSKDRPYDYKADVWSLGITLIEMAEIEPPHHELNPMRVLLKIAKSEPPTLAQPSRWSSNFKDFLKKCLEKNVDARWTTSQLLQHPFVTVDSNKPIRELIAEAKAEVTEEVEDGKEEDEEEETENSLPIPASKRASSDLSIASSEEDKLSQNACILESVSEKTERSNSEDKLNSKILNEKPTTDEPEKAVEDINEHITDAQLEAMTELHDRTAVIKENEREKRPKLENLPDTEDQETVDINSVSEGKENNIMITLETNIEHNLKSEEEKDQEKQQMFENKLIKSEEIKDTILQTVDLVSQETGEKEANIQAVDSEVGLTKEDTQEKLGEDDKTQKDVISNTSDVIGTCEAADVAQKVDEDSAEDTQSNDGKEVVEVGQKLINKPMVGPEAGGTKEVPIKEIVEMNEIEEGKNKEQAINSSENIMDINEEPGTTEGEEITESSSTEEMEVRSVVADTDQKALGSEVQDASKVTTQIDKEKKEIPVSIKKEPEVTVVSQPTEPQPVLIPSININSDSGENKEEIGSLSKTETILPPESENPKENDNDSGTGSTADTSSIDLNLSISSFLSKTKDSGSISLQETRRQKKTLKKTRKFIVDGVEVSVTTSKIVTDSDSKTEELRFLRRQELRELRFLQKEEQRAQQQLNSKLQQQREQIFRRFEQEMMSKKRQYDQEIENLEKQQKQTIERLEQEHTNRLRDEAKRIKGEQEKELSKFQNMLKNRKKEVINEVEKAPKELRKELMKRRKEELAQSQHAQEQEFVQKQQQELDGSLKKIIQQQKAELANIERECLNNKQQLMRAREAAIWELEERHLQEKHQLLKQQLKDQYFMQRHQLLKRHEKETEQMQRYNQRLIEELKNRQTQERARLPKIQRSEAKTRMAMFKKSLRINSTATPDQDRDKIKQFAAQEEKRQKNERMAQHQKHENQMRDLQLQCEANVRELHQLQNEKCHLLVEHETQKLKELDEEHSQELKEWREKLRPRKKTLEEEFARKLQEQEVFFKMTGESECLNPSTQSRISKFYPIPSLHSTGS

[29] = biological target: BDNF/NT-3 growth factors receptor (Homo sapiens, UniProt Q16620); type: functional;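 also: NTRK2 measured as one member of a broad kinome-wide kinase profiling panel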
[30] = biological target: Macrophage-stimulating protein receptor (Homo sapiens, UniProt Q04912); test: Navigating the Kinome. Panel member name: MST1R; type: functional
[31] = biological target: Macrophage colony-stimulating factor 1 receptor (Homo sapiens, UniProt P07333); type: functional;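 also: value comes from the Navigating the Kinome screening panel, CSF1R member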
[32] = biological target: Serine/threonine-protein kinase BRSK1 (Homo sapiens, UniProt Q8TDC3); type: functional;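 also: measured within a kinome-wide kinase panel, with the target listed as KIAA1811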
[33] = biological target: Dual specificity tyrosine-phosphorylation-regulated kinase 1A (Homo sapiens, UniProt Q13627); type: functional;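 also: measured against DYRK1A as one member of a broad kinome profiling panel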
[34] = biological target: Mitogen-activated protein kinase 14 (Homo sapiens, UniProt Q16539); type: functional;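 also: part of a kinome-wide panel, MAPK14 entry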

NS(=O)(=O)c1ccc(NC2=CC(=O)C(=O)c3ccccc32)cc1
> 67 µM (not active): IC50 [2]
active: EC50 [1] 24.4 µM | IC50 (SUMO-activating enzyme) 2.11 µM | IC50 (Genome polyprotein) 39 µM

CC(C)N(C(=O)Nc1ccc2nsnc2c1)C(C)C
> 50 µM (not active): IC50 [3]

Clc1cc(-c2c[nH]c3ncccc23)nc(NC2CCCCC2)n1
inactive: Ki [4] > 1.26 µM | Ki [6] > 7.94 µM | Ki [7] > 1.58 µM | Ki [8] > 3.16 µM | Ki [10] > 2 µM | Ki [11] > 1.26 µM | Ki [13] > 3.16 µM | Ki [14] > 1.58 µM | Ki (Activated CDC42 kinase 1) > 3.98 µM | Ki (Ephrin type-A receptor 2) > 3.16 µM | Ki [21] > 6.31 µM | Ki [22] > 5.01 µM | Ki [25] > 6.31 µM | Ki [26] > 2 µM | Ki [27] > 3.98 µM | Ki [30] > 3.98 µM | Ki [31] > 1.58 µM | Ki [32] > 10 µM | Ki [34] > 3.98 µM
active: Ki [5] 0.794 µM | Ki [9] 0.398 µM | Ki [12] 1.58 µM | Ki [15] 3.16 µM | Ki [16] 1 µM | Ki [17] 0.794 µM | Ki [18] 0.0794 µM | Ki [19] 2.51 µM | Ki [20] 0.126 µM | Ki [23] 0.158 µM | Ki [24] 0.251 µM | Ki [28] 6.31 µM | Ki [29] 2 µM | Ki [33] 0.02 µM
